Results on 31 compounds are retold here after patent US20210246115A1 (Bioimics AB, priority 2017, published 2021).

A word on the MIC: it is the lowest concentration that inhibits growth of the organism. One may read the IC50 as the point on the concentration scale where inhibition reaches its midpoint.

The structures appear in SMILES notation. Converted amounts (≈) assume the structure as drawn. Structures can show the parent of a compound that is named as a salt.

In assay [1] the test system is Staphylococcus aureus (ATCC25923). As to the kind of experiment: MIC, broth microdilution (CLSI), Staphylococcus aureus ATCC25923. The note with it: Staphylococcus aureus, ATCC25923, read-out: S. aureus ATCC 25923 MIC. On the technique in general: In broth dilution the organism is exposed to a series of concentrations in liquid medium.
Procedure: Initial minimal inhibitory concentration (MIC) tests were made on two bacterial strains: • Escherichia coli (ATCC25922) • Staphylococcus aureus (ATCC25923).
MIC values were determined using the standard broth microdilution procedure based on the guidelines by the Clinical and Laboratory Standards Institute (CLSI). Briefly, the compounds were dissolved in DMSO to 10 mM. They were diluted in cation-adjusted Mueller-Hinton broth (CAMHB) to four times the highest concentration tested. A serial two-fold dilution in CAMHB was done in microdilution plates. The inoculum of bacterial strain to be tested was prepared by making a suspension of colonies from an 18 to 24 hours old plate in CAMHB. The inoculum was diluted so that, after inoculation, each well contained approximately 5×10^5 CFU/mL. To a volume of 50 μl compound in CA 3 an equal volume of inoculum was added. The tray was sealed in a plastic bag and incubated at 35° C. for 16 to 20 hours. To aid in the detection of growth the dye resazurin was added to a final concentration 0.001% and incubated at room temperature for 1 h. Reduction of resazurin, and therefore bacterial growth, was seen as a change from blue to pink.
For assay [2], the system named is E. coli RNase P RNA, M1 RNA. As to the kind of experiment: Inhibition of bacterial RNase P activity, IC50 determination (cleavage of pATSerUG by M1 RNA). Type of assay: biochemical. The conditions noted are these: NI: No inhibition.
Assay [3] deals with Escherichia coli (ATCC25922). As to the kind of experiment: MIC, broth microdilution (CLSI), Escherichia coli. The conditions noted are these: Escherichia coli, ATCC25922, read-out: E. coli ATCC 25922 MIC, Table XIII.

Consider `N[C@H]1CC[C@H](NC2CCC(c3cn(CC4CCCCC4)c4ccc(Br)cc34)CC2)CC1` (single isomer, unassigned) [Compound 265, (1r,4r)-N1-(4-(5-bromo-1-(cyclohexylmethyl)-1H-indol-3-yl)cyclohexyl)cyclohexane-1,4-diamine hydrochloride salt], for which the MIC in assay [1] and in assay [3] was 2 µg/mL throughout. Moreover, the IC50 in assay [2] (hydrochloride salt) turned out to be 15 µM.
As for `Cc1cccc(C(CC(=O)NCCN2CCCC2)c2cn(Cc3ccccc3)c3ccccc23)c1.Cl` (centres unmarked) [Compound 3, 3-(1-benzyl-1H-indol-3-yl)-N-(2-(pyrrolidin-1-yl)ethyl)-3-(m-tolyl)propanamide hydrochloride salt], the MIC in assay [1] is 32 µg/mL; in assay [3], greater than 512 µg/mL.
On to `Cl.c1ccc2c(CCNCC3CCCC3)c[nH]c2c1` [Compound 20, N-(cyclopentylmethyl)-2-(1H-indol-3-yl)ethan-1-amine hydrochloride salt], for which the MIC in assay [1] and in assay [3] was greater than 512 µg/mL in each case. Besides, 4140 µM corresponded to half-maximal inhibition in assay [2] (IC50).
In the case of `Cc1cccc(C(CC(=O)NCCC2CCNCC2)c2cn(Cc3ccccc3)c3ncccc23)c1.Cl` (centres unmarked) [Compound 39, 3-(1-benzyl-1H-pyrrolo[2,3-b]pyridin-3-yl)-N-(2-(piperidin-4-yl)ethyl)-3-(m-tolyl)propanamide hydrochloride salt], the figures for the MIC in assay [1] and in assay [3] were 265 µg/mL and greater than 512 µg/mL, respectively. Moreover, the half-maximal inhibitory concentration (IC50) in assay [2] is 959 µM.
The corresponding values for `Cc1cccc(C(CC(=O)N[C@H]2CC[C@@H](N)CC2)c2cn(Cc3ccccc3)c3ncccc23)c1.Cl` (some centres unmarked) [Compound 41, N-((1s,4s)-4-aminocyclohexyl)-3-(1-benzyl-1H-pyrrolo[2,3-b]pyridin-3-yl)-3-(m-tolyl)propanamide hydrochloride salt] are 258 µg/mL, greater than 512 µg/mL and 980 µM.
For `Cc1cccc(C(CC(=O)N[C@H]2CC[C@@H](N)CC2)c2cn(Cc3ccccc3)c3ccccc23)c1` (stereo partly drawn) [Compound 54, N-((1S,4S)-4-aminocyclohexyl)-3-(1-benzyl-1H-indol-3-yl)-3-(m-tolyl)propanamide hydrochloride salt], it took 100 µM to reach half-maximal inhibition in assay [2] (IC50).
Same read-out and setting: the same measure for `N[C@H]1CC[C@@H](NC(=O)CC(c2cccnc2)c2cn(Cc3ccccc3)c3ccccc23)CC1` (some centres unmarked) [Compound 75, N-((1s,4s)-4-aminocyclohexyl)-3-(1-benzyl-1H-indol-3-yl)-3-(pyridin-3-yl)propanamide hydrochloride salt]: 343 µM.
Regarding `O=C(CC(c1cscn1)c1cn(Cc2ccccc2)c2ccccc12)NCCC1CCNCC1` (centres unmarked) [Compound 76, 3-(1-benzyl-1H-indol-3-yl)-N-(2-(piperidin-4-yl)ethyl)-3-(thiazol-4-yl) propanamide hydrochloride salt], the half-inhibitory concentration (IC50) in assay [2] (hydrochloride salt) was 197 µM.
For the compound `O=C(CC(c1cn(Cc2ccccc2)c2ccccc12)C1CCNCC1)NCCC1CCNCC1` (centres unmarked) [Compound 77, 3-(1-benzyl-1H-indol-3-yl)-3-(piperidin-4-yl)-N-(2-(piperidin-4-yl)ethyl)propanamide hydrochloride salt], in assay [2], inhibition was half-maximal at 140 µM (IC50).
Same read-out and setting: the same measure for `Cc1cccc(C(CC(=O)NCC2CCNCC2)c2cn(Cc3ccccc3)c3ccccc23)c1` (centres unmarked) [Compound 79, 3-(1-benzyl-1H-indol-3-yl)-N-(piperidin-4-ylmethyl)-3-(m-tolyl)propanamide hydrochloride salt]: 129 µM.
For the compound `O=C(CCc1cn(Cc2ccccc2)c2ccccc12)NCCC1CCNCC1` [Compound 88, 3-(1-benzyl-1H-indol-3-yl)-N-(2-(piperidin-4-yl)ethyl)propanamide hydrochloride salt], in assay [2], the IC50 was determined as 842 µM.
The same measure, in the same setting: the value for `Cc1cccc(C(CC(=O)NC2CCNCC2)c2cn(Cc3ccccc3)c3cnccc23)c1` (centres unmarked) [Compound 90, 3-(1-benzyl-1H-pyrrolo[2,3-c]pyridin-3-yl)-N-(piperidin-4-yl)-3-(m-tolyl)propanamide hydrochloride salt] was 950 µM; that for `CCn1cc(C(CC(=O)NC2CCNCC2)c2cccc(C)c2)c2ccccc21` (centres unmarked) [Compound 91, 3-(1-ethyl-1H-indol-3-yl)-N-(piperidin-4-yl)-3-(m-tolyl)propanamide hydrochloride salt] was 1080 µM.
The same measure, in the same setting: the value for `O=C(CC(c1cccnc1)c1cn(Cc2ccccc2)c2ccccc12)NCCC1CCNCC1` (centres unmarked) [Compound 93, 3-(1-benzyl-1H-indol-3-yl)-N-(2-(piperidin-4-yl)ethyl)-3-(pyridin-3-yl) propanamide hydrochloride salt] was 308 µM; that for `Cc1cccc(C(CC(=O)NCCC2CCNCC2)c2cn(Cc3ccccc3)c3ncncc23)c1` (centres unmarked) [Compound 94, 3-(7-benzyl-7H-pyrrolo[2,3-d]pyrimidin-5-yl)-N-(2-(piperidin-4-yl)ethyl)-3-(m-tolyl)propanamide hydrochloride salt] was 912 µM.
For `O=C(CC(c1cscn1)c1cn(Cc2ccccc2)c2ccccc12)NCCC1CCNCC1` (centres unmarked) [Compound 95, 3-(1-benzyl-1H-indol-3-yl)-N-(2-(piperidin-4-yl)ethyl)-3-(thiazol-4-yl) propanamide hydrochloride salt], in assay [2] (hydrochloride salt), the IC50 is 1300 µM.
For `O=C(CC(c1cscn1)c1cn(Cc2ccccc2)c2ccccc12)NC1CCNCC1` (centres unmarked) [Compound 96, 3-(1-benzyl-1H-indol-3-yl)-N-(piperidin-4-yl)-3-(thiazol-4-yl) propanamide hydrochloride salt], the half-inhibitory concentration (IC50) in assay [2] stood at 911 µM.
As for `Cc1cccc(C(CC(=O)NC2CCNCC2)c2cn(CC3CCCCC3)c3cccnc23)c1` (centres unmarked) [Compound 98, 3-(1-(cyclohexylmethyl)-1H-pyrrolo[3,2-b]pyridin-3-yl)-N-(piperidin-4-yl)-3-(m-tolyl)propanamide hydrochloride salt], the IC50 in assay [2] was 269 µM.
On the same count and under the same terms, the same measure for `O=C(CCc1cn(Cc2ccccc2)c2ccccc12)NC1CCNCC1` [Compound 102, 3-(1-benzyl-1H-indol-3-yl)-N-(piperidin-4-yl)propanamide hydrochloride salt]: 950 µM.
Regarding `Cl.N[C@H]1CC[C@H](NC(=O)CC(c2ccccc2)c2cn(CC3CCCCC3)c3ccccc23)CC1` (stereo partly drawn) [Compound 130, N-((1R,4R)-4-aminocyclohexyl)-3-(1-(cyclohexylmethyl)-1H-indol-3-yl)-3-phenylpropanamide hydrochloride salt], the MIC in assay [1] and in assay [3] was 64 µg/mL throughout.
`Cc1cccc(C(CC(=O)Nc2ccc(N3CCNCC3)cc2)c2cn(CC3CCCCC3)c3ccccc23)c1.Cl` (centres unmarked) [Compound 155, 3-(1-(cyclohexylmethyl)-1H-indol-3-yl)-N-(4-(piperazin-1-yl)phenyl)-3-(m-tolyl)propanamide hydrochloride salt]: the minimum inhibitory concentration (MIC) in assay [1] and in assay [3] was greater than 512 µg/mL throughout.
Turning to `Cc1cccc(C(CC(=O)Nc2ccc(N3CCCCC3)cc2)c2cn(CC3CCCCC3)c3ccccc23)c1.Cl` (centres unmarked) [Compound 158, 3-(1-(cyclohexylmethyl)-1H-indol-3-yl)-N-(4-(piperidin-1-yl)phenyl)-3-(m-tolyl)propanamide hydrochloride salt], the MIC in assay [1] and in assay [3] was greater than 512 µg/mL in each case.
For the compound `Cc1cccc(C(CC(=O)NC2CCCCC2)c2cn(CC3CCCCC3)c3ccccc23)c1` (centres unmarked) [Compound 208, N-cyclohexyl-3-(1-(cyclohexylmethyl)-1H-indol-3-yl)-3-(m-tolyl)propanamide], the MIC in assay [1] and in assay [3] was greater than 512 µg/mL in each case.
On to `Cc1cccc(C(CC(=O)N[C@H]2CC[C@H](O)CC2)c2cn(CC3CCCCC3)c3ccccc23)c1` (stereo partly drawn) [Compound 210, 3-(1-(cyclohexylmethyl)-1H-indol-3-yl)-N-((1R,4R)-4-hydroxycyclohexyl)-3-(m-tolyl)propanamide], for which the MIC in assay [1] and in assay [3] was greater than 512 µg/mL throughout.
Compound `COc1ccccc1-c1ccc2c(c1)c(C(CC(=O)N[C@H]1CC[C@H](N)CC1)c1cccc(C)c1)cn2CC1CCCCC1.Cl` (some centres unmarked) [Compound 219, hydrochloride salt] had an IC50 in assay [2] of 7 µM.
On to `COc1ccccc1-c1ccc2c(c1)c(C(CC(=O)N[C@H]1CC[C@H](N)CC1)c1cccc(C)c1)cn2CC1CCCCC1.Cl` (some centres unmarked) [Compound 219], for which the MIC was 10 µg/mL in assay [1] and greater than 512 µg/mL in assay [3].
The corresponding values for `CCOP(=O)(NCCC1CCN(C(=O)CC(c2cccc(C)c2)c2cn(CC3CCCCC3)c3ccccc23)CC1)OCC` (centres unmarked) [Compound 227, diethyl (2-(1-(3-(1-(cyclohexylmethyl)-1H-indol-3-yl)-3-(m-tolyl)propanoyl)piperidin-4-yl)ethyl)phosphoramidate] are 318 µg/mL (≈ 511 µM) and greater than 512 µg/mL.
The corresponding values for `Cl.NC1CCC(NC(=O)Cc2cn(CC3CCCCC3)c3ccc(-c4cccc(OC(F)(F)F)c4)cc23)CC1` [Compound 240, N-((1S,4S)-4-aminocyclohexyl)-2-(1-(cyclohexylmethyl)-5-(3-(trifluoromethoxy)phenyl)-1H-indol-3-yl)acetamide hydrochloride salt] are 9 µg/mL and 289 µg/mL.
The corresponding values for `Cc1cccc(C(CC(=O)NC2CCNC(=O)C2)c2cn(CC3CCCCC3)c3ccc(Br)cc23)c1` (centres unmarked) [Compound 296, 3-(5-bromo-1-(cyclohexylmethyl)-1H-indol-3-yl)-N-(2-oxopiperidin-4-yl)-3-(m-tolyl)propanamide hydrochloride salt] are greater than 512 µg/mL and greater than 512 µg/mL.
In the case of `Cl.Nc1ccc(NC(=O)CCc2cn(CC3CCCCC3)c3ccc(Br)cc23)cn1` [Compound 298, N-(6-aminopyridin-3-yl)-3-(5-bromo-1-(cyclohexylmethyl)-1H-indol-3-yl)propanamide hydrochloride salt], the MIC was 15 µg/mL in assay [1] and greater than 512 µg/mL in assay [3].
In assay [2], `Cl.Cl.N[C@H]1CC[C@H](NCCC(c2cn(C3CCCCC3)c3ccccc23)C2CCCCC2)CC1` (stereo partly drawn) [Compound 378, ((1R,4R)-N1-(3-cyclohexyl-3-(1-cyclohexyl-1H-indol-3-yl)propyl)cyclohexane-1,4-diamine salt] gave an IC50 of 22 µM.
